Laboratory results published in PMC4422656, “Structural Basis Underlying the Binding Preference of Human Galectins-1, -3 and -7 for Galβ1-3/4GlcNAc” (PLoS ONE, 2015).
Values joined by “and” are separate entries in the source; they are usually repeats but may differ in a detail not shown here. Equal values may be shown once.

Legend:
[1] = target: T1, human galectin-7 (hGal7) (Homo sapiens, UniProt P47929); assay: Fluorescence polarization (FP)-based competition binding assay; conditions: for Kd: fluorescence anisotropy at 277 K, competition with LN2-FITC probe, read-out: Dissociation constant Kd (Kd FP)
T1 construct: 7 (residues 1–136); 6xHis (C); made in house; host or cells: Escherichia coli BL21 (DE3)
Description: (§1) The measurement of FP-based assay is based on the rotation speed of a fluorophore-containing compound bound to the protein counterpart (e.g. galectins in this study). The fluorophore rotates at a slower rate than when it is unbound, and the resulting fluorescence polarization is higher. In this study we carried out all measurements according to reported procedures. […] All the measurements were conducted in Tris buffer (12.5 mM, pH 7.4) with 200 mM NaCl and 5 mM β-mercaptoethanol at 4 °C. Data plotting, nonlinear regression analysis, and curve construction was done by Prism 5.0 software (GraphPad, San Diego, CA).
(§2) The measured anisotropy value with competitor (Acompetitor) is used to calculate the amount of galectin-bound probe [PG] according to equation:
(§3) [PG]=[(Acompetitor−A0)∕(Amax−A0)]×[P]total.−

[2] = target: T2, human galectin-1 (hGal1) (Homo sapiens, UniProt P09382); assay: as above; conditions: for Kd: fluorescence anisotropy at 277 K, competition with LN2-FITC probe, read-out: Dissociation constant Kd (Kd FP)
T2 construct: the full-length hGal1 (residues 1–135); 6xHis (N); made in house; host or cells: Escherichia coli BL21 (DE3)
Description: as §1, §2, §3

[3] = target: T3, human galectin-3 (hGal3) (Homo sapiens, UniProt P17931); assay: as above; conditions: for Kd: fluorescence anisotropy at 277 K, competition with LN2-FITC probe, read-out: Dissociation constant Kd (Kd FP)
T3 construct: the full-length hGal1 (residues 1–135), 3 (residues 1–250); 6xHis (N); made in house; host or cells: Escherichia coli BL21 (DE3)
Description: as §1, §2, §3

[4] = target: T1, human galectin-7 (hGal7); assay: Biolayer interferometry, LN1/LN2 binding affinity; conditions: for Kd: Biolayer Interferometry at 300 K, steady-state, read-out: Dissociation constant Kd (Kd BI)
Source text: (§4) Using a standard PCR-based cloning strategy, the coding region of the full-length hGal1 (residues 1–135), 3 (residues 1–250), 7 (residues 1–136) and CRD domain of hGal3 (residues 113–250) were generated and inserted into modified pET-15b (hGal1, hGal3 and hGal3-CRD) or pET-28a (hGal7) vector (Novagen) with in-frame N- and C-terminal 6xHis-tag, respectively. QuikChange mutagenesis method (Agilent Technologies) was applied to replace the corresponding codons of residues Glu165 and Arg186 in full-length hGal3 with Ala codon to allow the expression of mutant proteins hGal3-E165A and hGal3-R186A. All the wild type and mutated proteins were produced in Escherichia coli BL21 (DE3), with 0.5 mM IPTG induction for 16 h at 20 °C. Recombinant proteins were purified by Ni^2+-affinity and size-exclusion chromatography to homogeneity. Purified proteins were then stored in gel-filtration buffer (25 mM Tris-HCl pH8.0, 300 mM NaCl and 5 mM β-mercaptoethanol) and concentrated to ~ 4, 20 and 9 mg/ml as determined by the method of Bradford for both Biolayer interferometry experiments and crystallization trials, respectively.
(§5) Specifically, biotinylated galectins were prepared according to the standard protocol (provided by FortéBio), and adjusted to final concentration of 1 μM in assay buffer condition (50 mM Tris-HCl pH 7.5, 300 mM NaCl and 5 mM β-mercaptoethanol). Biotinylated galectins were then immobilized on Super Streptavidin Biosensors (FortéBio, Inc.), while free streptavidin sites on biosensor were then blocked by incubation with biocytin (10 mg/ml) to avoid non-specific interactions. […] Measurements were followed by 120 sec baseline step, 60 sec association step and 200 sec dissociation step. Baseline and dissociation steps were carried out in assay buffer only. All the data were processed and calculated using Fortebio software and the steady-state K d values were derived from equilibrium responses (S1 Fig) and summarized in Table 1. Two additional parallel Super Streptavidin biosensors were coated with biotinylated galectin and biocytin, separately, and only incubated with assay buffer as double reference controls.

[5] = target: T2, human galectin-1 (hGal1); assay: Biolayer interferometry, LN1/LN2 binding affinity; conditions: for Kd: Biolayer Interferometry at 300 K, steady-state, read-out: Dissociation constant Kd (Kd BI)
Source text: as §4, §5

[6] = target: T4, hGal3-E165A (Homo sapiens, UniProt P17931, E165A); assay: Biolayer interferometry, LN1/LN2 binding affinity; conditions: for Reduction of binding affinity of hGal3-E165A: hGal3-E165A versus wild-type hGal3, from Table 1 Kd BI; for Kd: Biolayer Interferometry at 300 K, steady-state, read-out: Dissociation constant Kd (Kd BI)
T4 construct: the full-length hGal1 (residues 1–135), 3 (residues 1–250); 6xHis (N); made in house; host or cells: Escherichia coli BL21 (DE3)
Source text: as §4, §5

[7] = target: T5, human galectin-3 (hGal3, full-length) (Homo sapiens, UniProt P17931); assay: Biolayer interferometry, LN1/LN2 binding affinity; conditions: for Kd: Biolayer Interferometry at 300 K, steady-state, read-out: Dissociation constant Kd (Kd BI)
T5 construct: the full-length hGal1 (residues 1–135), 3 (residues 1–250); 6xHis (N); made in house; host or cells: Escherichia coli BL21 (DE3)
Source text: as §4, §5

[8] = target: T6, hGal3-R186A (Homo sapiens, UniProt P17931, R186A); assay: Biolayer interferometry, LN1/LN2 binding affinity; conditions: hGal3-R186A mutant
T6 construct: the full-length hGal1 (residues 1–135), 3 (residues 1–250); 6xHis (N); made in house; host or cells: Escherichia coli BL21 (DE3)
Source text: as §4, §5

[9] = system: hGal1; parameters: method as in PMID 23124203; conditions: in the presence of λ5-UR peptide of pre-BCR; cited from earlier work
[10] = system: hGal1; parameters: method as in PMID 12223272; conditions: LN1 versus LN2; cited from earlier work
[11] = system: CRD domain of hGal3; parameters: method as in PMID 12223272; conditions: CRD domain used instead of full-length hGal3; LN1 versus LN2; cited from earlier work
[12] = system: rat galectin-2; parameters: method as in PMID 12223272; conditions: cited from earlier work
[13] = system: hGal7; parameters: method as in PMID 12223272; conditions: cited from earlier work
[14] = system: hGal3; parameters: method as in PMID 21949831; conditions: cited from earlier work
[15] = system: hGal1; parameters: method as in PMID 21949831; conditions: cited from earlier work
[16] = based on Kd FP values, LN1 versus LN2
[17] = based on Kd BI values, LN1 versus LN2

T4 sequence (P17931 whole entry E165A, the tested form may be a part): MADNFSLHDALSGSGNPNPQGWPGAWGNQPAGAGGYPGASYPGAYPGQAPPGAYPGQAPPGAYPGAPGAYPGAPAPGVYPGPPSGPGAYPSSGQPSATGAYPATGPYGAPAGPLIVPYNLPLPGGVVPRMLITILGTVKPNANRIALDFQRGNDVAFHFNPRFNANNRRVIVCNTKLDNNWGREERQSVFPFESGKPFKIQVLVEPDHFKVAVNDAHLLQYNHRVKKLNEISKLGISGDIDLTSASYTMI
T1 sequence (P47929 whole entry, the tested form may be a part): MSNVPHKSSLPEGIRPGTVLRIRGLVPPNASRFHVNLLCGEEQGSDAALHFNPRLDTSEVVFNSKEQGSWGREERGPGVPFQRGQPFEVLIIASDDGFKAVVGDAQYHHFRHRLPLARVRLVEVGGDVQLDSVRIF
T3 sequence (P17931 whole entry, the tested form may be a part): as the sequence (P17931 whole entry E165A, the tested form may be a part) above, with A165E counted along it
T5 sequence (P17931 whole entry, the tested form may be a part): as the sequence (P17931 whole entry E165A, the tested form may be a part) above, with A165E counted along it
T2 sequence (P09382 whole entry, the tested form may be a part): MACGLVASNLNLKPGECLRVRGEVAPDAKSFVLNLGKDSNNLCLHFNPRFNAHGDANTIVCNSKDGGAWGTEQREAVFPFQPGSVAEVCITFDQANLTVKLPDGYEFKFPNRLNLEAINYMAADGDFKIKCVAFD
T6 sequence (P17931 whole entry R186A, the tested form may be a part): as the sequence (P17931 whole entry E165A, the tested form may be a part) above, with A165E, R186A counted along it

Kd [1]	Kd [2] [µM]	Kd [3] [nM]	Kd [4]	Kd [5]	Reduction of binding affinity of hGal3-E165A [6] [fold]	Kd ([6]; hGal3-E165A) [µM]	Kd [7]	Binding ability [8]	SMILES	other results
19.7 µM	3.59	330	~410 µM and 410 µM	150 µM	8.5	280	~33 µM and 33 µM	lose its binding ability	CC(=O)N[C@@H]1[C@@H](O)[C@H](O[C@@H]2O[C@H](CO)[C@H](O)[C@H](O)[C@H]2O)[C@@H](CO)O[C@H]1O [LN2, Galβ1-4GlcNAc]	
									CC(=O)N[C@H]1[C@H]([C@H](O)[C@H](O)CO)O[C@@](O[C@H]2[C@@H](O)[C@@H](CO)O[C@@H](O[C@H]3[C@H](O)[C@@H](NC(C)=O)C(O)O[C@@H]3CO)[C@@H]2O)(C(=O)O)C[C@@H]1O (stereo partly drawn) [α3-SiaLacNAc]	Increase of hGal1 binding [9]: 10 fold
6.6 µM and 6.63 µM	6.74	1440	~270 µM and 270 µM	~340 µM and 340 µM	2.5	230	~93 µM and 93 µM	lose its binding ability	CC(=O)NC1C(O)OC(CO)C(O)C1OC1OC(CO)C(O)C(O)C1O (stereo not shown) [LN1, Galβ1-3GlcNAc]	LN1/LN2 ratio, previous study [10]: 0.79; LN1/LN2 ratio, previous study [11]: 0.65 ^5; LN1/LN2 ratio (Kd LN1/Kd LN2) [1, 16]: 2.97; LN1/LN2 ratio (Kd LN1/Kd LN2) [2, 16]: 0.53; LN1/LN2 ratio (Kd LN1/Kd LN2) [3, 16]: 0.23; LN1/LN2 binding preference [12]: prominent LN1-preferred binding activity; LN1/LN2 ratio, previous study ([13]; LN1 versus LN2): 2.7; LN1/LN2 binding preference [13]: prominent LN1-preferred binding activity; LN1/LN2 ratio (Kd LN1/Kd LN2) [4, 17]: 1.52; LN1/LN2 ratio (Kd LN1/Kd LN2) [5, 17]: 0.44; LN1/LN2 ratio (Kd LN1/Kd LN2) ([6]; hGal3-E165A, based on Kd BI values, LN1 versus LN2): 1.22 and 1.22 ^2; LN1/LN2 ratio (Kd LN1/Kd LN2) [7, 17]: 0.35
									CC(=O)N[C@H]1C(O)O[C@H](CO)[C@H](O)[C@@H]1O[C@@H]1O[C@H](CO)[C@H](O)[C@H](O)[C@H]1O (stereo partly shown) [TF antigen, Galβ1-3GalNAc]	Binding with TF antigen [14]: binds; Binding with TF antigen [15]: not
									CC(=O)N[C@H]1[C@H](O[C@H]2[C@@H](O)[C@@H](CO)O[C@@H](O[C@H]3[C@H](O)[C@@H](O)C(O)O[C@@H]3CO)[C@@H]2O)O[C@H](CO)[C@@H](O[C@@H]2O[C@H](CO)[C@H](O)[C@H](O)[C@H]2O)[C@@H]1O (mixture of isomers) [Lacto-N-neotetraose (LNnT), Lacto-N-neotetraose]	Decrease of hGal1 binding [9]: 3 fold
